Results taken from patent US11634417B2 (Array BioPharma Inc., priority 2019, dated 2023).
Structures can show the parent of a compound that is named as a salt.

Tests used:
[1] = system: ERK1/2 (Thr202/Tyr204) phosphorylation in KYSE520 cells; experiment: Cellular Phospho-p44/42 MAPK (Erk1/2) (Thr202/Tyr204) assay, In-Cell Western; type: cell-based; conditions: Homo sapiens, KYSE-520; KYSE520 cells, 1 hour incubation, pERK signal normalized to GAPDH; single assay or mean of multiple assays; read-out: Biological Example 2 IC50
Summary of the method: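 KYSE520 cells were treated 1 h with a 10-point 1:3 series (20 μM-1 nM, 0.5% DMSO), then fixed and stained for pERK1/2 (Thr202/Tyr204) and GAPDH by In-Cell Western. pERK signal was normalized to GAPDH per well; IC50 from 4-parameter fit.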

full-length SHP2 = molecular target: T1, full-length SHP2 (Homo sapiens, UniProt Q06124); experiment: SHP2 enzymatic assay (fluorescence intensity kinetic assay, DiFMUP hydrolysis); type: biochemical; conditions: 1 nM His6-tagged SHP2(2-527), 1 μM activating peptide, 50 μM DiFMUP; single assay or mean of multiple assays; read-out: Biological Example 1 IC50
T1 construct: 1 nM full-length SHP2 (His6-tagged SHP2(2-527), recombinantly expressed in E. coli and purified in-house); His6; made in house; host or cells: E. coli
T1 sequence (Q06124 2-527): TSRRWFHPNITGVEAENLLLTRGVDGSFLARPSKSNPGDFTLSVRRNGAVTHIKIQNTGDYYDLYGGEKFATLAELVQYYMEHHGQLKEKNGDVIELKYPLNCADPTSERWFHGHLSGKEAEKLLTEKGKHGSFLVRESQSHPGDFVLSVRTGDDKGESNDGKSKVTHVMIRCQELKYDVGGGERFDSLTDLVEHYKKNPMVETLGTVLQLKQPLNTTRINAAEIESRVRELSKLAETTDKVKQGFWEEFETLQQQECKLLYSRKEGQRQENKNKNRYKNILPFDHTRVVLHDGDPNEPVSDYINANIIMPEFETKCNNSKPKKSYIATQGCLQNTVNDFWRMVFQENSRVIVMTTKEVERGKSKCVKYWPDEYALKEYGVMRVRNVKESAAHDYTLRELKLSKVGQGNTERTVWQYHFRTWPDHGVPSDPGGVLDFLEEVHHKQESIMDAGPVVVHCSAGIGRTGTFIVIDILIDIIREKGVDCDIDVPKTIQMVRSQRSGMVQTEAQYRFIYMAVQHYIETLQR

| Compound | IC50 (full-length SHP2) | IC50 [1] |
| --- | --- | --- |
| Cc1nccc(Sc2cnc(N3CCC4(CC3)Cc3ccccc3[C@H]4N)nn2)c1Cl [Example 54, (S)-1′-(6-((3-chloro-2-methylpyridin-4-yl)thio)-1,2,4-triazin-3-yl)-1,3-dihydrospiro[indene-2,4′-piperidin]-1-amine] | 62 nM | 7 nM |
| N[C@@H]1c2ccccc2CC12CCN(c1ncc(Sc3ccccc3)nn1)CC2 [Example 32, (S)-1′-(6-(phenylthio)-1,2,4-triazin-3-yl)-1,3-dihydrospiro[indene-2,4′-piperidin]-1-amine] | 5 nM | 14 nM |
| Nc1cc(Sc2cnc(N3CCC4(CC3)Cc3ccccc3[C@H]4N)nn2)c(Cl)cn1 [Example 18, (S)-1′-(6-((2-amino-5-chloropyridin-4-yl)thio)-1,2,4-triazin-3-yl)-1,3-dihydrospiro[indene-2,4′-piperidin]-1-amine] | 15 nM | 8 nM |
| COc1cnc2c(c1)[C@@H](N)C1(CCN(c3ncc(Sc4ccnc(N)c4Cl)nn3)CC1)C2 (single isomer, unassigned) [Example 44] | 37 nM | 4 nM |
| C[C@@H]1OCC2(CCN(c3ncc(Sc4ccnc5c4ccn5C)nn3)CC2)[C@@H]1N [Example 29, (3S,4S)-3-methyl-8-(6-((1-methyl-1H-pyrrolo[2,3-b]pyridin-4-yl)thio)-1,2,4-triazin-3-yl)-2-oxa-8-azaspiro[4.5]decan-4-amine] | 96 nM | 206 nM |
| Nc1nccc(Sc2cnc(N3CCC4(CC3)Cc3ncccc3[C@@H]4N)nn2)c1Cl [Example 16, (R)-1′-(6-((2-amino-3-chloropyridin-4-yl)thio)-1,2,4-triazin-3-yl)-5,7-dihydrospiro[cyclopenta[b]pyridine-6,4′-piperidin]-5-amine trihydrochloride] | 175 nM | 49 nM |
| CNc1nccc(Sc2cnc(N3CCC4(CC3)Cc3ccccc3[C@H]4N)nn2)c1Cl [Example 53, (S)-1′-(6-((3-chloro-2-(methylamino)pyridin-4-yl)thio)-1,2,4-triazin-3-yl)-1,3-dihydrospiro[indene-2,4′-piperidin]-1-amine] | 46 nM | 4 nM |

Continued, in another order:

| IC50 (full-length SHP2) | Compound | IC50 [1] |
| --- | --- | --- |
| 78 nM | CNc1nccc(Sc2cnc(N3CCC4(CC3)Cc3ncccc3[C@H]4N)nn2)c1Cl [Example 39, (S)-1′-(6-((3-chloro-2-(methylamino)pyridin-4-yl)thio)-1,2,4-triazin-3-yl)-5,7-dihydrospiro[cyclopenta[b]pyridine-6,4′-piperidin]-5-amine] | 11 nM |
| 47 nM | Nc1nccc(Sc2cnc(N3CCC4(CC3)Cc3ncccc3[C@H]4N)nn2)c1Cl [Example 24, (S)-1′-(6-((2-amino-3-chloropyridin-4-yl)thio)-1,2,4-triazin-3-yl)-5,7-dihydrospiro[cyclopenta[b]pyridine-6,4′-piperidin]-5-amine] | 5 nM |
| 109 nM | Cc1ccc2c(n1)CC1(CCN(c3ncc(Sc4ccnc(N)c4Cl)nn3)CC1)[C@H]2N [Example 60] | 528 nM |
| 22 nM | N[C@@H]1c2ccccc2CC12CCN(c1ncc(Sc3ccnc4[nH]ccc34)nn1)CC2 [Example 30, (S)-1′-(6-((1H-pyrrolo[2,3-b]pyridin-4-yl)thio)-1,2,4-triazin-3-yl)-1,3-dihydrospiro[indene-2,4′-piperidin]-1-amine] | 2 nM |
| 49 nM | N[C@@H]1c2ccccc2CC12CCN(c1ncc(Sc3c[nH]c4ncccc34)nn1)CC2 [Example 26, (S)-1′-(6-((1H-pyrrolo[2,3-b]pyridin-3-yl)thio)-1,2,4-triazin-3-yl)-1,3-dihydrospiro[indene-2,4′-piperidin]-1-amine] | 120 nM |
